Reference: patent publication US20230346827A1 (priority 2020, published 2023)

Assays:
[1] = tested on: CD19+ B cells and PBMC + (α-IgM and TCR ligands); test: BioMAP BT system; format: cell-based, human; details: annotated relative to vehicle controls
Text: Cell types and stimuli used in each system are as follows: 3C system [HUVEC + (IL-1β, TNFα and IFNy)], 4H system [HUVEC + (IL-4 and histamine)], LPS system [PBMC and HUVEC + LPS (TLR4 ligand)], SAg system [PBMC and HUVEC + TCR ligands], BT system [CD19+ B cells and PBMC + (α-IgM and TCR ligands)], BF4T system [bronchial epithelial cells and HDFn + (TNFα and IL-4)], BE3C system [bronchial epithelial cells + (IL-1β, TNFα and IFNy)], CASM3C system [coronary artery smooth muscle cells + (IL-1 β, TNFα and IFNy)], HDF3CGF system [HDFn + (IL-1β, TNFα, IFNy, EGF, bFGF and PDGF-BB)], KF3CT system [keratinocytes and HDFn + (IL-1β, TNFα, IFNy and TGFβ)], MyoF system [differentiated lung myofibroblasts + (TNFα and TGFβ)] and Mphg system [HUVEC and M1 macrophages + Zymosan (TLR2 ligand)].
Systems are derived from either single cell types or co-culture systems. Adherent cell types are cultured in 96 or 384-well plates until confluence, followed by the addition of PBMC (SAg and LPS systems). […] Soluble factors from supernatants are quantified using either HTRF® detection, bead-based multiplex immunoassay or capture ELISA. Overt adverse effects of test agents on cell proliferation and viability (cytotoxicity) are detected by sulforhodamine B (SRB) staining, for adherent cells, and alamarBlue® reduction for cells in suspension. […]

human PBMC = test: Stimulated IL-6 release from human PBMC (ELISA); format: cell-based; details: 24 h
Protocol: Peripheral blood mononuclear cells (PBMC) were isolated from healthy donors through Ficoll-Paque PLUS (GE Healthcare; 11778538) density centrifugation. PBMC were cultured at 2×10^5 cells/well in the absence (unstimulated PBS vehicle controls) or presence of stimulation (LPS, peptidoglycan, pokeweed mitogen, PHA-L, CpG + IL-15, or Cytostim) in the absence (vehicle) or presence of LMW-DS (Tikomed AB, Viken, Sweden, WO 2016/076780) at three concentrations; 60 µg/ml, 200 µg/ml and 600 µg/ml for 24 hours at 37° C., 5% CO2. Following centrifugation, cell culture supernatants were removed and stored at -20° C. awaiting analysis for IL-6 by ELISA. Levels of IL-6 were quantified in the supernatant by ELISA (R&D systems; DY206) according to manufacturer’s instructions.

[2] = target: T1, SARS-CoV-2 spike protein - ACE2 interaction (Severe acute respiratory syndrome coronavirus 2, UniProt P0DTC2); test: RayBio COVID-19 Spike-ACE2 binding assay kit (ELISA); design: species or system SARS-CoV-2 / human; details: LMW-DS 3.0 to 600 µg/ml
T1 construct: purchased RayBio CoV-SACE2
Protocol: The RayBio® COVID-19 Spike-ACE2 binding assay kit (cat. number CoV-SACE2) was used as per the manufacturer’s instructions (ver 1.6) to assess the ability of LMW-DS to disrupt the interaction between SARS-CoV-2 spike protein and ACE2.
LMW-DS (ILB®, Tikomed AB, Viken, Sweden, WO 2016/076780) in saline was added in concentrations ranging from […] to 600 µg/ml.

Substance: sodium salt of dextran sulfate [LMW-DS]
- Decreased biomarker activity [1]: sIgG, sIL-17F
- Increased biomarker activity [1]: sIL-17A
- IL-6 release (human PBMC; CpG 0.2 µM + IL-15, LMW-DS 60-600 µg/ml): not generally impacted
- IL-6 release (human PBMC; Cytostim 10 µl/ml, LMW-DS 60-600 µg/ml): not generally impacted
- IL-6 release (human PBMC; LPS 0.01 ng/ml, LMW-DS 60, 200, 600 µg/ml): concentration dependent and statistically significant reduction
- IL-6 release (human PBMC; PHA-L 1.0 µg/ml, LMW-DS 60-600 µg/ml): inhibited significantly in a concentration-dependent manner
- IL-6 release (human PBMC; higher concentration of CpG (1.0 µM) + IL-15, LMW-DS 60-600 µg/ml): no general impact
- IL-6 release (human PBMC; higher concentration of Cytostim (30 µl/ml), LMW-DS 60-600 µg/ml): no general impact
- IL-6 release (human PBMC; peptidoglycan 30 ng/ml, LMW-DS 60-600 µg/ml): little evidence
- IL-6 release (human PBMC; pokeweed mitogen 1.0 µg/ml, LMW-DS 60-600 µg/ml): not impacted generally
- SARS-CoV-2 spike protein - ACE2 interaction [2]: concentration dependent disruption
